In US11992494B2, “Cyclopentathiophene carboxamide derivatives as platelet activating factor receptor antagonists” (Boehringer Ingelheim International GmbH, priority 2021, dated 2024):

Biological target: PAFR (Homo sapiens, UniProt P25105)
Assay: cellular HTRF IP1 assay: inhibition of PAFR activation by PAF C-16 ligand (endpoint assay)
Assay type: cell-based
Set-up: expressed in transfected cells; host or cells: HEK293
Experimental: The ability of compounds of formula (I) to inhibit the activation of the PAF receptor (PAFR) by the PAF C-16 ligand (PAF) is determined using the following cellular HTRF IP1 assay (IP1 Gq assay kit from Cisbio, Cat. no.: 62IP1APEJ) in assay buffer (1×HBSS, 20 mM Hepes, pH 7.4, 50 mM LiCl and containing 0.1% (w/v) BSA):
Evaluation of the Inhibition of PAFR Activation Using an Endpoint Assay
HEK293 cells overexpressing human PAFR (produced in-house) are seeded into a Poly-D-Lysine coated 384 well white cell culture microtiter assay plate with lid (15.000 cells per well). Subsequently, the plates are incubated over night at 37° C./5% CO2. On the next day, cells are being washed and subsequently, various concentrations of the test compounds (compounds in 100% DMSO; final concentration of DMSO in wells is 1%) are added to the assay plate via Echo 555 acoustic liquid handler. Plates are then incubated with lid for 90 minutes at 37° C./5% CO2. Thereafter, PAF ligand (Cayman Chemical Company, Item no.: 60900) is added at a final concentration of 11 nM. Plates are then incubated with lid for 60 minutes at 37° C./5% CO2. Then, 5 μl per well of Anti-IP1-Antibody-Cryptate solution and 5 μl per well of IP1-d2 solution are added to all wells of the plate and the plate is incubated for another 60 minutes light protected at room temperature. The emissions at 620 nm and 665 nm (Excitation wavelength: 320 nm) are measured using an Envision Reader (PerkinElmer).

[1] = HEK293 cells overexpressing human PAFR, PAF ligand 11 nM, Table 2
[2] = dedicated head-to-head comparison assay run: cyclopropylene vs di-methyl / cyclobutylene analogues

Chain of PAFR (P25105 whole entry): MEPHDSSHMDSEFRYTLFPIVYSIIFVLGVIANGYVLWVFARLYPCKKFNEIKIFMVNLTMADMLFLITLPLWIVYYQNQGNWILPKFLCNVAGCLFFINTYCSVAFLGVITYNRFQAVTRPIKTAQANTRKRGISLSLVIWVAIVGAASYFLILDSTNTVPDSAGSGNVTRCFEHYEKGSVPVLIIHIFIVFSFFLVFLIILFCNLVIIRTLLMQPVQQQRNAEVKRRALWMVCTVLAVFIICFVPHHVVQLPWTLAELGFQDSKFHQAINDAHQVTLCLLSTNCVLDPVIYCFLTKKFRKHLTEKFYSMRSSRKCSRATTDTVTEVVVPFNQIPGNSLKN

IC50 [1] [nM]	SMILES	further results
3.5	Cc1nnc2n1-c1sc3c(c1C(c1ccccc1Cl)=NC21CC1)C[C@H](C(=O)N[C@H]1CC[C@@H](F)CC1)C3 [Example 36]	
6.4	Cc1nnc2n1-c1sc3c(c1C(c1ccccc1Cl)=NC21CC1)C[C@H](C(=O)NC1CCC(C)(C)OC1)C3 (stereo partly shown) [Example 94]	
1.9	Cc1nnc2n1-c1sc3c(c1C(c1ccccc1Cl)=NC21CC1)C[C@H](C(=O)N[C@H]1CC[C@H](C(F)F)CC1)C3 [Example 76]	
8.9	Cc1nnc2n1-c1sc3c(c1C(c1ccccc1Cl)=NC21CC1)C[C@H](C(=O)NC1CCc2ncccc2C1)C3 (stereo partly shown) [Example 97]	
3.6	Cc1nnc2n1-c1sc3c(c1C(c1ccccc1Cl)=NC21CC1)C[C@H](C(=O)N1CC2CC1C2)C3 [Example 11]	
8.8	Cc1nnc2n1-c1sc3c(c1C(c1ccccc1Cl)=NC21CC1)C[C@H](C(=O)NC1CC2CCC(C1)O2)C3 (stereo partly shown) [Example 90]	
4.6	Cc1nnc2n1-c1sc3c(c1C(c1ccccc1Cl)=NC21CC1)C[C@H](C(=O)N1C[C@H](C)O[C@@H](C)C1)C3 [Example 108, (13′S)-9′-(2-chlorophenyl)-13′-[(2S,6S)-2,6-dimethylmorpholine-4-carbonyl]-3′-methyl-16′-thia-2′,4′,5′,8′-tetraazaspiro[cyclopropane-1,7′-tetracyclo[8.6.0.0^2,6.0^11,15]hexadecane]-1′(10′),3′,5′,8′,11′(15′)-pentaene]	
1.3	Cc1nnc2n1-c1sc3c(c1C(c1ccccc1Cl)=NC21CC1)C[C@H](C(=O)NC12CC(C1)C2)C3 [Example 1, (13′S)—N-{bicyclo[1.1.1]pentan-1-yl}-9′-(2-chlorophenyl)-3′-methyl-16′-thia-2′,4′,5′,8′-tetraazaspiro[cyclopropane-1,7′-tetracyclo[8.6.0.0^2,6.0^11,15]hexadecane]-1′(10′),3′,5′,8′,11′(15′)-pentaene-13′-carboxamide]	
10	Cc1nnc2n1-c1sc3c(c1C(c1ccccc1Cl)=NC21CC1)C[C@H](C(=O)NC1CCn2nccc2C1)C3 (stereo partly shown) [Example 77]	
2.1	Cc1nnc2n1-c1sc3c(c1C(c1ccccc1Cl)=NC21CC1)C[C@H](C(=O)NC1CC(F)(F)C1)C3 [Example 27]	
1.5	Cc1nnc2n1-c1sc3c(c1C(c1ccccc1Cl)=NC21CC1)C[C@H](C(=O)NC1CCC2(CC1)CC2)C3 [Example 69]	
7	Cc1nnc2n1-c1sc3c(c1C(c1ccccc1Cl)=NC21CC1)C[C@H](C(=O)NC1CCc2cccnc21)C3 (stereo partly shown) [Example 42]	
1.9	Cc1nnc2n1-c1sc3c(c1C(c1ccccc1Cl)=NC21CC1)C[C@H](C(=O)NC1CC1(C)C)C3 (stereo partly shown) [Example 40]	
5.8	Cc1nnc2n1-c1sc3c(c1C(c1ccccc1Cl)=NC21CC1)C[C@H](C(=O)N[C@@H](C)CF)C3 [Example 125]	
7.7	Cc1nnc2n1-c1sc3c(c1C(c1ccccc1Cl)=NC21CC1)C[C@H](C(=O)N[C@H]1C[C@H](C#N)C1)C3 [Example 49]	
1	Cc1nnc2n1-c1sc3c(c1C(c1ccccc1Cl)=NC21CC1)C[C@H](C(=O)N[C@@H]1CCc2ccccc21)C3 [Example 32]	
9.1	Cc1nnc2n1-c1sc3c(c1C(c1ccccc1Cl)=NC21CC1)C[C@H](C(=O)N[C@H]1CC[C@H](C(C)(C)O)CC1)C3 [Example 98]	

The remaining lines, values behind:

SMILES	IC50 [1] [nM]	further results
Cc1nnc2n1-c1sc3c(c1C(c1ccccc1Cl)=NC21CC1)C[C@H](C(=O)NC1COc2ccccc21)C3 (stereo partly shown) [Example 55]	1.4	
Cc1nnc2n1-c1sc3c(c1C(c1ccccc1Cl)=NC21CC1)C[C@H](C(=O)NC1(c2ccccc2)CCOCC1)C3 [Example 96]	6	
Cc1nnc2n1-c1sc3c(c1C(c1ccccc1Cl)=NC2(C)C)C[C@H](C(=O)NC1CCc2cc(F)ccc21)C3 (stereo partly shown) [reference compound]		IC50 [2]: 4.9 nM
Cc1nnc2n1-c1sc3c(c1C(c1ccccc1Cl)=NC21CC1)C[C@H](C(=O)N(C)[C@H]1CCN(S(C)(=O)=O)C1)C3 [Example 111, (13′S)-9′-(2-chlorophenyl)-N-[(3S)-1-methanesulfonylpyrrolidin-3-yl]-N,3′-dimethyl-16′-thia-2′,4′,5′,8′-tetraazaspiro[cyclopropane-1,7′-tetracyclo[8.6.0.0^2,^6.0^11,15]hexadecane]-1′(10′),3′,5′,8′,11′(15′)-pentaene-13′-carboxamide]	24	
Cc1nnc2n1-c1sc3c(c1C(c1ccccc1Cl)=NC2)C[C@H](C(=O)N1CCOCC1)C3 [S-bepafant, reference compound]		IC50 (S-bepafant and its methylated derivatives in the above-mentioned assay): 73.5 nM
Cc1nnc2n1-c1sc3c(c1C(c1ccccc1Cl)=NC21CC1)C[C@H](C(=O)N[C@H]1CCc2cccc(F)c21)C3 [Example 53]	0.5	
CCc1nnc2n1-c1sc3c(c1C(c1ccccc1Cl)=NC21CC1)C[C@H](C(=O)N1CCOCC1)C3 [Example 119, (13′S)-9′-(2-chlorophenyl)-3′-ethyl-13′-(morpholine-4-carbonyl)-16′-thia-2′,4′,5′,8′-tetraazaspiro[cyclopropane-1,7′-tetracyclo[8.6.0.0^2,6.0^11,15]hexadecane]-1′(10′),3′,5′,8′,11′(15′)-pentaene]	15	
Cc1nnc2n1-c1sc3c(c1C(c1ccccc1Cl)=NC21CC1)C[C@H](C(=O)N1CCC(F)(F)C1)C3 [Example 105, (13′S)-9′-(2-chlorophenyl)-13′-(3,3-difluoro-pyrrolidine-1-carbonyl)-3′-methyl-16′-thia-2′,4′,5′,8′-tetraazaspiro[cyclopropane-1,7′-tetracyclo[8.6.0.0^2,6.0^11,15]hexadecane]-1′(10′),3′,5′,8′,11′(15′)-pentaene]	3.6	
CCN(C(=O)[C@@H]1Cc2sc3c(c2C1)C(c1ccccc1Cl)=NC1(CC1)c1nnc(C)n1-3)C1CCCCC1 [Example 91]	1.5	
CO[C@@H]1CCCCC1N(C)C(=O)[C@@H]1Cc2sc3c(c2C1)C(c1ccccc1Cl)=NC1(CC1)c1nnc(C)n1-3 (stereo partly shown) [Example 84]	2.3	
CCCNC(=O)[C@@H]1Cc2sc3c(c2C1)C(c1ccccc1Cl)=NC(C)(C)c1nnc(C)n1-3 [reference compound]		IC50 [2]: 29 nM
Cc1nnc2n1-c1sc3c(c1C(c1ccccc1Cl)=NC2(C)C)C[C@H](C(=O)N1CCOCC1)C3 [comparative example 1, reference compound]		IC50 [2]: 89 nM
Cc1nnc2n1-c1sc3c(c1C(c1ccccc1Cl)=NC21CC1)C[C@H](C(=O)N(C)C1CCOCC1)C3 [Example 37]	6.6	
Cc1nnc2n1-c1sc3c(c1C(c1ccccc1O)=NC21CC1)C[C@H](C(=O)N1CCOCC1)C3 [Example 9, 2-[(13′S)-3′-methyl-13′-(morpholine-4-carbonyl)-16′-thia-2′,4′,5′,8′-tetraazaspiro[cyclopropane-1,7′-tetracyclo[8.6.0.0^2,6.0^11,15]hexadecane]-1′(10′),3′,5′,8′,11′(15′)-pentaen-9′-yl]phenol]	52	
Cc1nnc2n1-c1sc3c(c1C(c1cc(N)ccc1Cl)=NC21CC1)C[C@H](C(=O)N1CCOCC1)C3 [Example 6, 4-chloro-3-[(13′S)-3′-methyl-13′-(morpholine-4-carbonyl)-16′-thia-2′,4′,5′,8′-tetraazaspiro[cyclopropane-1,7′-tetracyclo[8.6.0.0^2,6.0^11,15]hexadecane]-1′(10′),3′,5′,8′,11′(15′)-pentaen-9′-yl]aniline]	25	
Cc1nnc2n1-c1sc3c(c1C(c1ccccc1Cl)=NC21CC1)C[C@H](C(=O)NC1(c2ccccn2)CC1)C3 [Example 87]	4.9	IC50 [2]: 5.6 nM
